Laboratory results: patent US10889565B2, “4-hydroxy-3-sulfonylpyridin-2(1H)-ones as APJ receptor agonists” (BRISTOL-MYERS SQUIBB COMPANY, priority 2016, dated 2021)

biological target: T1, human APJ receptor (Homo sapiens, UniProt P35414); assay: Intracellular cAMP accumulation assay (APJ hcAMP, HTRF); type: cell-based; details: HEK293 cells stably expressing human APJ receptor; inhibition of forskolin-mediated cAMP production; read-out: Human APJ cAMP EC50 Potency range
T1 construct: expressed in transfected cells
T1 sequence (P35414 1-380): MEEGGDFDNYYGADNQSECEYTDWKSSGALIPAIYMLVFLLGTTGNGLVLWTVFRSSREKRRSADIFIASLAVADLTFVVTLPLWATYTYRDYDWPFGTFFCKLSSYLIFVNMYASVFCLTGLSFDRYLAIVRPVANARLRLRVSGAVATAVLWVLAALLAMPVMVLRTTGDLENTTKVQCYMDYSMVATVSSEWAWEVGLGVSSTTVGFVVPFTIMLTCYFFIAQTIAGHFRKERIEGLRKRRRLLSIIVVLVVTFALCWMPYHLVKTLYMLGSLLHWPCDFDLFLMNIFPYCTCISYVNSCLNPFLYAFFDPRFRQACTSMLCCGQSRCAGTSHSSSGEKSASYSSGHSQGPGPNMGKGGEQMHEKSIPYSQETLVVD
Procedure: Intracellular cAMP Accumulation Assay
HEK293 cells stably expressing human APJ receptor were used to assess the activity of compounds. Cultured cells were detached and resuspended in the cAMP Homogeneous Time-Resolved Fluorescence (HTRF) assay buffer (Cisbio cat; #62AM4PEJ). The assay was performed in 384-well assay plates (Perkin-Elmer; cat #6008289) according to assay protocol provided by the manufacturer. Serial dilutions of a compound together with assay buffer containing […] IBMX and 2 μM forskolin were added to each well containing 5,000 cells and incubated for 30 minutes at room temperature. Subsequently, cAMP D2 reagent was added in the lysis buffer followed by the EuK antibody (Cisbio; cat #62AM4PEJ) and incubated for 60 min. The fluorescence emission ratio was measured using fluorometer. The intracellular cAMP concentrations (compound-stimulated inhibition of forskolin-mediated cAMP production) were calculated by extrapolation from a standard curve using known cAMP concentrations. The EC50 values were obtained by fitting the data to a sigmoidal concentration-response curve with variable slope. The maximal achievable inhibition of forskolin-induced cAMP levels (Ymax) for each compound was expressed as relative percentage of inhibition attained using pyroglutamated apelin-13 ((Pyr1)apelin-13) peptide, which was set to 100%.
The examples disclosed below were tested in the APJ in vitro assays described above and were found having human APJ cyclic AMP (hcAMP) activity. The EC50 value of each compound is presented at the end of the example description.
The biological activity of the exemplified compounds of this invention determined by the assay described above is shown at the end of each example.

For CCCCc1[nH]c(=O)c(S(=O)(=O)c2ccc(Nc3ccc(F)cc3)cc2)c(O)c1-c1c(OC)cccc1OC [Example 29, 6-butyl-5-(2,6-dimethoxyphenyl)-3-((4-((4-fluorophenyl)amino)phenyl)sulfonyl)-4-hydroxypyridin-2(1H)-one], which EC50 is on record?
Its EC50 is 0.01 to 10 nM.

With CCCCc1[nH]c(=O)c(S(=O)(=O)c2ccc(-c3ccc(F)cc3)cc2)c(O)c1-c1c(OC)cccc1OC [Example 13, 6-butyl-5-(2,6-dimethoxy-phenyl)-3-((4′-fluoro-[1,1′-biphenyl]-4-yl)sulfonyl)-4-hydroxy-pyridin-2(1H)-one] as the compound, how does the EC50 read?
The EC50 was 10 to 100 nM.

With CCCCc1[nH]c(=O)c(S(=O)(=O)c2ccc(N)cc2)c(O)c1-c1c(OC)cccc1OC [Example 27, 3-((4-aminophenyl)sulfonyl)-6-butyl-5-(2,6-dimethoxyphenyl)-4-hydroxypyridin-2(1H)-one] as the compound, how does the EC50 read?
The EC50 was 0.01 to 10 nM.

Which EC50 does the source give for CCCCc1[nH]c(=O)c(S(=O)(=O)c2nnc[nH]2)c(O)c1-c1c(OC)cccc1OC [Example 48, 3-((4H-1,2,4-triazol-3-yl)sulfonyl)-6-butyl-5-(2,6-dimethoxy-phenyl)-4-hydroxy-pyridin-2(1H)-one] here?
The EC50 was 10 to 100 nM.

Which EC50 does the source give for CCCCc1[nH]c(=O)c(S(=O)(=O)c2ccc(-c3ccncc3C)cn2)c(O)c1-c1c(OC)cccc1OC [Example 34, 6-butyl-5-(2,6-dimethoxy-phenyl)-4-hydroxy-3-((3′-methyl-[3,4′-bipyridin]-6-yl)sulfonyl) pyridin-2(1H)-one] here?
The EC50 was 0.01 to 10 nM.

For CCCCc1[nH]c(=O)c(S(=O)(=O)c2ccc(NC(=O)c3ccc(F)cc3)cc2)c(O)c1-c1c(OC)cccc1OC [Example 30, N-(4-((6-butyl-5-(2,6-dimethoxyphenyl)-4-hydroxy-2-oxo-1,2-dihydropyridin-3-yl)sulfonyl)phenyl)-4-fluorobenzamide], which EC50 is on record?
The EC50 was 0.01 to 10 nM.

CCCCc1[nH]c(=O)c(S(=O)(=O)c2ccc(-c3cncc(F)c3)cc2)c(O)c1-c1c(OC)cccc1OC [Example 4, 6-butyl-5-(2,6-dimethoxy-phenyl)-3-((4-(5-fluoro-pyridin-3-yl)phenyl)sulfonyl)-4-hydroxy-pyridin-2(1H)-one] was tested. Which EC50 did it give?
The EC50 was 0.01 to 10 nM.

CCCCc1[nH]c(=O)c(S(=O)(=O)c2ccc(C3CC3)cc2)c(O)c1-c1c(OC)cccc1OC [Example 7, 6-butyl-3-((4-cyclo-propylphenyl)sulfonyl)-5-(2,6-dimethoxy-phenyl)-4-hydroxy-pyridin-2(1H)-one] was tested. Which EC50 did it give?
The EC50 was 0.01 to 10 nM.

Which EC50 does the source give for CCOCc1[nH]c(=O)c(S(=O)(=O)c2ccc(C3CC3)cc2)c(O)c1-c1c(OC)cccc1OC [Example 11, 3-((4-cyclo-propylphenyl)sulfonyl)-5-(2,6-dimethoxy-phenyl)-6-(ethoxymethyl)-4-hydroxy-pyridin-2(1H)-one] here?
The EC50 was 0.01 to 10 nM.

With CCOCc1[nH]c(=O)c(S(=O)(=O)c2ccc(-n3cc(Cl)cc(Cl)c3=O)cc2)c(O)c1-c1c(OC)cccc1OC [Example 25, 3-((4-(3,5-dichloro-2-oxopyridin-1(2H)-yl)phenyl)sulfonyl)-5-(2,6-dimethoxy-phenyl)-6-(ethoxymethyl)-4-hydroxy-pyridin-2(1H)-one] as the compound, how does the EC50 read?
Its EC50 is 10 to 100 nM.

CCCCc1[nH]c(=O)c(S(=O)(=O)c2ccc(-c3ccc(F)nc3C)cn2)c(O)c1-c1c(OC)cccc1OC [Example 41, 6-butyl-5-(2,6-dimethoxy-phenyl)-3-((6′-fluoro-2′-methyl-[3,3′-bipyridin]-6-yl)sulfonyl)-4-hydroxypyridin-2(1H)-one] was tested. Which EC50 did it give?
The EC50 was 0.01 to 10 nM.

For CCCCc1[nH]c(=O)c(S(=O)(=O)c2ccc(-c3ccc(OC(F)(F)F)cc3)cn2)c(O)c1-c1c(OC)cccc1OC [Example 35, 6-butyl-5-(2,6-dimethoxy-phenyl)-4-hydroxy-3-((5-(4-(trifluoro-methoxy)phenyl)pyridin-2-yl)sulfonyl) pyridin-2(1H)-one], which EC50 is on record?
Its EC50 is 0.01 to 10 nM.

Which EC50 does the source give for CCCCc1[nH]c(=O)c(S(=O)(=O)c2ccc(Br)cn2)c(O)c1-c1c(OC)cccc1OC [Example 32, 3-((5-bromopyridin-2-yl)sulfonyl)-6-butyl-5-(2,6-dimethoxyphenyl)-4-hydroxypyridin-2(1H)-one] here?
Its EC50 is 0.01 to 10 nM.

Which EC50 does the source give for CCCCc1[nH]c(=O)c(S(=O)(=O)c2ccc(-c3ccc(C(=O)NC4CC4)cc3)cn2)c(O)c1-c1c(OC)cccc1OC [Example 45, 4-(6-((6-butyl-5-(2,6-dimethoxy-phenyl)-4-hydroxy-2-oxo-1,2-dihydro-pyridin-3-yl)sulfonyl)pyridin-3-yl)-N-cyclopropyl-benzamide] here?
Its EC50 is 0.01 to 10 nM.

How did the EC50 turn out when CCCCc1[nH]c(=O)c(S(=O)(=O)c2ccc(-c3ccnc4[nH]ccc34)cn2)c(O)c1-c1c(OC)cccc1OC [Example 47, 3-((5-(1H-pyrrolo[2,3-b]pyridin-4-yl)pyridin-2-yl)sulfonyl)-6-butyl-5-(2,6-dimethoxy-phenyl)-4-hydroxy-pyridin-2(1H)-one] was run?
Its EC50 is 0.01 to 10 nM.

CCCCc1[nH]c(=O)c(S(=O)(=O)c2ccc(-c3ccnc(F)c3C)cn2)c(O)c1-c1c(OC)cccc1OC [Example 33, 6-butyl-5-(2,6-dimethoxy-phenyl)-3-((2′-fluoro-3′-methyl-[3,4′-bipyridin]-6-yl)sulfonyl)-4-hydroxy-pyridin-2(1H)-one] was tested. Which EC50 did it give?
The EC50 was 0.01 to 10 nM.

Which EC50 does the source give for CCCCc1[nH]c(=O)c(S(=O)(=O)c2ccc(-c3ccccc3C)cn2)c(O)c1-c1c(OC)cccc1OC [Example 37, 6-butyl-5-(2,6-dimethoxy-phenyl)-4-hydroxy-3-((5-(o-tolyl)pyridin-2-yl)sulfonyl) pyridin-2(1H)-one] here?
Its EC50 is 0.01 to 10 nM.

How did the EC50 turn out when CCOCc1[nH]c(=O)c(S(=O)(=O)c2ccc(Br)cc2)c(O)c1-c1c(OC)cccc1OC [Example 14, 3-((4-bromophenyl)sulfonyl)-5-(2,6-dimethoxy-phenyl)-6-(ethoxymethyl)-4-hydroxy-pyridin-2(1H)-one] was run?
Its EC50 is 10 to 100 nM.

Which EC50 does the source give for C=C(C)c1ccc(S(=O)(=O)c2c(O)c(-c3c(OC)cccc3OC)c(CCCC)[nH]c2=O)nc1 [Example 49, 6-Butyl-5-(2,6-dimethoxyphenyl)-4-hydroxy-3-((5-(prop-1-en-2-yl)pyridin-2-yl)sulfonyl)pyridin-2(1H)-one] here?
Its EC50 is 0.01 to 10 nM.

Which EC50 does the source give for CCCCc1[nH]c(=O)c(S(=O)(=O)c2cccc[n+]2[O-])c(O)c1-c1c(OC)cccc1OC [Example 18, 6-butyl-5-(2,6-dimethoxy-phenyl)-4-hydroxy-3-((1-hydroxy-1l4-pyridin-2-yl)sulfonyl) pyridin-2(1H)-one] here?
The EC50 was 100 to 300 nM.

With CCCCc1[nH]c(=O)c(S(=O)(=O)c2ccccc2Br)c(O)c1-c1c(OC)cccc1OC [Example 15, 3-((2-bromophenyl)sulfonyl)-6-butyl-5-(2,6-dimethoxy-phenyl)-4-hydroxy-pyridin-2(1H)-one] as the compound, how does the EC50 read?
The EC50 was 10 to 100 nM.

How did the EC50 turn out when CCCCc1[nH]c(=O)c(S(=O)(=O)c2ccc(NC(=O)OC(C)(C)C)cc2)c(O)c1-c1c(OC)cccc1OC [Example 8, tert-butyl (4-((6-butyl-5-(2,6-dimethoxy-phenyl)-4-hydroxy-2-oxo-1,2-dihydro-pyridin-3-yl)sulfonyl)phenyl) carbamate] was run?
The EC50 was 0.01 to 10 nM.

For CCCCc1[nH]c(=O)c(S(=O)(=O)c2ccc(NC(=O)Nc3ccc(F)cc3)cc2)c(O)c1-c1c(OC)cccc1OC [Example 31, 1-(4-((6-butyl-5-(2,6-dimethoxyphenyl)-4-hydroxy-2-oxo-1,2-dihydropyridin-3-yl)sulfonyl)phenyl)-3-(4-fluorophenyl)urea], which EC50 is on record?
The EC50 was 0.01 to 10 nM.

With CCCCc1[nH]c(=O)c(S(=O)(=O)c2ccc(C(C)C)cn2)c(O)c1-c1c(OC)cccc1OC [Example 50, 6-Butyl-5-(2,6-dimethoxyphenyl)-4-hydroxy-3-((5-isopropylpyridin-2-yl)sulfonyl)pyridin-2(1H)-one] as the compound, how does the EC50 read?
The EC50 was 0.01 to 10 nM.

Which EC50 does the source give for CCOCc1[nH]c(=O)c(S(=O)(=O)c2ccc(-n3cc(C)ccc3=O)cc2)c(O)c1-c1c(OC)cccc1OC [Example 24, 5-(2,6-dimethoxy-phenyl)-6-(ethoxymethyl)-4-hydroxy-3-((4-(5-methyl-2-oxopyridin-1(2H)-yl)phenyl)sulfonyl) pyridin-2(1H)-one] here?
The EC50 was 0.01 to 10 nM.

How did the EC50 turn out when CCCCc1[nH]c(=O)c(S(=O)(=O)c2ccc(-c3ccc(F)cc3C)cn2)c(O)c1-c1c(OC)cccc1OC [Example 36, 6-butyl-5-(2,6-dimethoxy-phenyl)-3-((5-(4-fluoro-2-methylphenyl)pyridin-2-yl)sulfonyl)-4-hydroxy-pyridin-2(1H)-one] was run?
Its EC50 is 0.01 to 10 nM.

With CCCCc1[nH]c(=O)c(S(=O)(=O)c2ccccc2)c(O)c1-c1c(OC)cccc1OC [Example 10, 6-butyl-5-(2,6-dimethoxy-phenyl)-4-hydroxy-3-(phenyl-sulfonyl) pyridin-2(1H)-one] as the compound, how does the EC50 read?
The EC50 was 0.01 to 10 nM.
